Data: PMC11945486, “TAS1R2/TAS1R3 Single-Nucleotide Polymorphisms Affect Sweet Taste Receptor Activation by Sweeteners: The SWEET Project” (Nutrients, 2025)
Values belong to the molecule of their own block, whether it stands above or below them. No end group written: not given here.

Target: T1, human TAS1R2-C9S/TAS1R3-WT (Homo sapiens, UniProt Q7RTX0+Q8TE23)
T1 construct: expressed in transfected cells; host or cells: HEK293T-Gα16gust44
T1 sequence (Q8TE23 20-839): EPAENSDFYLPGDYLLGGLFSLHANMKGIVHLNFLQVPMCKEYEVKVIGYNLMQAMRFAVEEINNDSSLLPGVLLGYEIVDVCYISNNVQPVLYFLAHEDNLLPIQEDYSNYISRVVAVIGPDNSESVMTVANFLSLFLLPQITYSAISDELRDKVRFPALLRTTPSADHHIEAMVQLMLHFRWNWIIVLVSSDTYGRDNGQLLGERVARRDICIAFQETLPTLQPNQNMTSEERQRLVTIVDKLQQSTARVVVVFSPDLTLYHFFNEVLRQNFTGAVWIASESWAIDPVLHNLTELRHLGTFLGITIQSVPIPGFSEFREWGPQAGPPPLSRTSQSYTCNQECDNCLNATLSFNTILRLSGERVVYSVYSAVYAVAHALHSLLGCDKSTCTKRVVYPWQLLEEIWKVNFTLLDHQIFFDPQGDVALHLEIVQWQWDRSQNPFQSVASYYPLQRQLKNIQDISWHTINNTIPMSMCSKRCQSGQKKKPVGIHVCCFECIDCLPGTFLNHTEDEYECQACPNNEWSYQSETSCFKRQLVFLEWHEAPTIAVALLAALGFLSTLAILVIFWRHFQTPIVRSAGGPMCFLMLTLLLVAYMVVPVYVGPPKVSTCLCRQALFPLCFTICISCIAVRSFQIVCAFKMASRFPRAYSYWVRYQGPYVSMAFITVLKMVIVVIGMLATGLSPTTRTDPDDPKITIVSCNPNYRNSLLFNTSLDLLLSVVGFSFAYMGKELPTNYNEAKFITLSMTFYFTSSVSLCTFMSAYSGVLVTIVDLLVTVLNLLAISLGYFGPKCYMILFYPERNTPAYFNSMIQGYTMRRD
T1 sequence (Q7RTX0 21-852): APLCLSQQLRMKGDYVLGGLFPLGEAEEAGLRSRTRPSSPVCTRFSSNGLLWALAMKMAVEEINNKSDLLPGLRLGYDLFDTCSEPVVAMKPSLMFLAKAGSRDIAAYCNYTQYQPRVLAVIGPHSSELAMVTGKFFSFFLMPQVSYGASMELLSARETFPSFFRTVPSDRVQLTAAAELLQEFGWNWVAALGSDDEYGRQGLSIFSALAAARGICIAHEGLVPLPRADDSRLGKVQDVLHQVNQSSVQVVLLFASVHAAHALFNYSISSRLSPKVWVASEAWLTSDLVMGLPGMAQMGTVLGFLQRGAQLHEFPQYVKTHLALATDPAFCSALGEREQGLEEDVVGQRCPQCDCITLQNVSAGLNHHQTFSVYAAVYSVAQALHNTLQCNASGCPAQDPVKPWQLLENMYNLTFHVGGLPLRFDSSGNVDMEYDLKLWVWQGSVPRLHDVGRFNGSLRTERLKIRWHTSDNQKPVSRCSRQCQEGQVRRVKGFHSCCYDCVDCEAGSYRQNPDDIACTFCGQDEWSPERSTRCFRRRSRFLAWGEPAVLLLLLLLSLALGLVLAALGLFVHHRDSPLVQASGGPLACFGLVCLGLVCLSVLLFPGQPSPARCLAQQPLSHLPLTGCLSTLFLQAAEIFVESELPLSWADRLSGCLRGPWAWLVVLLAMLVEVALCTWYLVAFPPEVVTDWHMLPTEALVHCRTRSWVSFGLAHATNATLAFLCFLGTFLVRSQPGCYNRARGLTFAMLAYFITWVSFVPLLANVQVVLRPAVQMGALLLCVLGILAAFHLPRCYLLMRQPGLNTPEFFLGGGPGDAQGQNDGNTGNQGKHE
Assay: Calcium mobilisation assay, TAS1R2 variant C9S with TAS1R3-WT
Format: cell-based
Details: for Max ΔF/F0: maximal signal amplitude
From the text: The coding sequences for TAS1R2 and TAS1R3 were commercially synthesised, and the human codon was optimised for expression in human cells. The coding sequences of human TAS1R2 and TAS1R3 were subcloned and inserted into the mammalian expression vectors pcDNA6/myc-HisA and pcDNA4/myc-HisA (Invitrogen; Thermo Fisher Scientific; Illkirch, France) between the EcoRI and NotI restriction sites, generating the plasmids pcDNA6-TAS1R2 and pcDNA4-TAS1R3, respectively. To increase protein expression in mammalian cells, an upstream start codon was used, which was a sequence called MAX, corresponding to the QBI SP163 element also described in pcDNA4-HisMax (Invitrogen; Thermo Fisher Scientific; Illkirch, France). To measure the expression level of the receptor by immunohistochemistry, we used the FLAG sequence ([…]) in the C-terminal position, which encodes the FLAG tag epitope. SNP variants of TAS1R2 and TAS1R3 were constructed based on […], respectively, using site-directed mutagenesis (Genewiz; Leipzig, Germany).
The HEK293T cells were kindly provided by Jay P. Slack (Givaudan Flavors Corporation; Cincinnati, OH, USA). HEK293T cells stably transfected with Gα16gust44 [43, 67] were seeded in poly-D-lysine-coated clear-bottom black 96-well plates (0.35 × 10^5 cells/well) in high-glucose DMEM supplemented with 2 mM GlutaMAX, 10% dialysed foetal bovine serum with penicillin/streptomycin and G418 (400 μg/mL) at 37 °C and 6.3% CO2 in a humidified atmosphere as previously reported. […] As a negative control, HEK293T cells were mock-transfected with the empty expression vector. After a further 24 h of incubation, the HEK293T cells were washed with C1 buffer (130 mM NaCl, 5 mM KCl, 10 mM HEPES pH 7.4 and 2 mM CaCl2). The 96-well plates containing the cells were then stimulated with sweet-tasting compounds. […] Different concentration ranges were tested depending on the sweet compound injected. The Ca^2+ changes were expressed as fractional changes in fluorescent light intensity: ΔF/F = (F − F0)/F0, where F was the fluorescent light intensity at each point, and F0 was the value of emitted fluorescent light prior to stimulus application. To calculate dose–response relationships, the changes in fluorescence upon stimulus application were averaged, mock-subtracted and baseline-corrected. The dose–response data obtained were adjusted using a 4-parameter logistic equation. The half-maximal effective concentrations (EC50 values) and maximal signal amplitudes were calculated using SigmaPlot software (version 15.0) (Systat Software; San Jose, CA, USA).
For in vitro calcium mobilisation assay performed on hTAS1R2-SNPs, hTAS1R3-SNPs and mTAS1R3-I60T, 6 to 7 concentrations were tested for each sweet compound, plus buffer alone. All concentration–receptor combinations were measured in duplicate, and each experiment was repeated at least 4 times (8 wells/concentration). Results were expressed for each concentration as ΔF/F mean ± SEM and represented as dose–response curves.

EC50: 23.7 ± 1.6 µM
R1 = Variant EC50/WT EC50: 1.4
Max ΔF/F0: 1.18 ± 0.03
Molecule: C=C1C[C@@]23CC[C@H]4[C@@](C)(CCC[C@@]4(C)C(=O)O[C@@H]4O[C@H](CO)[C@@H](O)[C@H](O[C@@H]5O[C@H](CO)[C@@H](O)[C@H](O)[C@H]5O)[C@H]4O[C@@H]4O[C@H](CO)[C@@H](O)[C@H](O)[C@H]4O)[C@@H]2CC[C@]1(O[C@@H]1O[C@H](CO)[C@@H](O)[C@H](O[C@@H]2O[C@H](CO)[C@@H](O)[C@H](O)[C@H]2O)[C@H]1O[C@@H]1O[C@H](CO)[C@@H](O)[C@H](O)[C@H]1O)C3 [Rebaudioside M, rebaudioside M]

EC50: 88 ± 15 µM
R1 = Variant EC50/WT EC50: 1.0
Max ΔF/F0: 0.72 ± 0.05
Molecule: OC[C@H]1O[C@H](O[C@]2(CCl)O[C@H](CCl)[C@@H](O)[C@@H]2O)[C@H](O)[C@@H](O)[C@H]1Cl [Sucralose]

R1 = Variant EC50/WT EC50: 1.2
Max ΔF/F0: 1.14 ± 0.03
Molecule: brazzein (QDKCKKVYENYPVSKCQLANQCNYDCKLDKHARSGECFYDEKRNLQCICDYCEY; ends and bridges not checked; cysteine pairing not given here; UniProt P56552 1-54, looked up) [sweet-tasting protein obtained by recombinant production using the yeast Pichia pastoris]

R1 = Variant EC50/WT EC50: 0.9
Max ΔF/F0: 0.61 ± 0.01
Molecule: thaumatin

EC50: 6.6 ± 0.1 µM
B1: thaumatin (protein)
chain: ATFEIVNRCSYTVWAAASKGDAALDAGGRQLNSGESWTINVEPGTKGGKIWARTDCYFDDSGSGICKTGDCGGLLRCKRFGRPPTTLAEFSLNQYGKDYIDISNIKGFNVPMDFSPTTRGCRGVRCAADIVGQCPAKLKAPGGGCNDACTVFQTSEYCCTTGKCGPTEYSRFFKRLCPDAFSYVLDKPTTVTCPGSSNYRVTFCPTA
modifications: Eight disulfides
notes: sweet-tasting plant protein, E957

The remaining lines, values behind:

Molecule: CC1=CC(=O)NS(=O)(=O)O1 [Acesulfame K, acesulfame K]
EC50: 466 ± 54 µM
R1 = Variant EC50/WT EC50: 0.7
Max ΔF/F0: 0.32 ± 0.01

Molecule: O=S(=O)(O)NC1CCCCC1 [Cyclamate, cyclamate]
EC50: 1810 ± 55 µM

Molecule: C[C@H](CC[C@@H](O[C@@H]1O[C@H](CO[C@@H]2O[C@H](CO)[C@@H](O)[C@H](O)[C@H]2O)[C@@H](O)[C@H](O)[C@H]1O[C@@H]1O[C@H](CO)[C@@H](O)[C@H](O)[C@H]1O)C(C)(C)O)[C@H]1CC[C@@]2(C)[C@@H]3CC=C4[C@@H](CC[C@H](O[C@@H]5O[C@H](CO[C@@H]6O[C@H](CO)[C@@H](O)[C@H](O)[C@H]6O)[C@@H](O)[C@H](O)[C@H]5O)C4(C)C)[C@]3(C)[C@H](O)C[C@]12C [Mogroside V, mogroside V]
EC50: 18.6 ± 1.6 µM
R1 = Variant EC50/WT EC50: 1.1
Max ΔF/F0: 1.32 ± 0.04

Molecule: COc1ccc(CCC(=O)c2c(O)cc(O[C@@H]3O[C@H](CO)[C@@H](O)[C@H](O)[C@H]3O[C@@H]3O[C@@H](C)[C@H](O)[C@@H](O)[C@H]3O)cc2O)cc1O [NHDC, neohesperidin dihydrochalcone]
EC50: 99 ± 5.2 µM
R1 = Variant EC50/WT EC50: 1.3
Max ΔF/F0: 0.83 ± 0.02

Molecule: COC(=O)[C@H](Cc1ccccc1)NC(=O)[C@H](CC(=O)O)NCCC(C)(C)C [Neotame]
EC50: 0.85 ± 0.16 µM
R1 = Variant EC50/WT EC50: 1.0
Max ΔF/F0: 0.66 ± 0.04

Molecule: C=C(C)[C@@H]1CC=C(/C=N/O)CC1 [Perillartine, perillartine]
EC50: 17.8 ± 1.2 µM
R1 = Variant EC50/WT EC50: 1.0
Max ΔF/F0: 1.29 ± 0.03
